“And” between values parts separate entries of the source, which are not always exact repeats. Identical values can stand only once.
How the values were obtained:
human CB1 receptor [1] = biological target: T1, human CB1 receptor (Homo sapiens, UniProt P21554); test: Binding assay for CB1 ([3H]-CP-55,940 displacement, SK-N-MC membranes); conditions: for inhibition at 10 µM: test concentration 10 μM (footnote 1), read-out: CB1 receptor binding percent inhibition
T1 construct: expressed in transfected cells; host or cells: SK-N-MC cells, stably transfected with pcDNA3 CB-1 (human)
T1 sequence (P21554 whole entry): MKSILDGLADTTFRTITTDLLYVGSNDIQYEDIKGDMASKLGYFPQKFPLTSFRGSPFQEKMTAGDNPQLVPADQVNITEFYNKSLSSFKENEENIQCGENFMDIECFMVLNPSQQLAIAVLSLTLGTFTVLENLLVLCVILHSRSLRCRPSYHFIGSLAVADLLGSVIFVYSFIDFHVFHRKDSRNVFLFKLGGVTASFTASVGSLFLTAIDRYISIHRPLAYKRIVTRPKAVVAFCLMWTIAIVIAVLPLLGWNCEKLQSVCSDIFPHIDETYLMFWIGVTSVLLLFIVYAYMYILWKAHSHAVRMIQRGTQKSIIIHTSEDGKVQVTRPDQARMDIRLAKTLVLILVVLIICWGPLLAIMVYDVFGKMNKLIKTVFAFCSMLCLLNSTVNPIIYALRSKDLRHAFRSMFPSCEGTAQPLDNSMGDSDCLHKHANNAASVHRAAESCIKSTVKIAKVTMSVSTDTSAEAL
Procedure: (§1) The human CB1 and CB2 receptors were stably expressed in SK-N-MC cells transfected with pcDNA3 CB-1 (human) or pcDNA3 CB-2 (human). The cells were grown in T-180 cell culture flasks under standard cell culture conditions at 37° C. in a 5% CO2 atmosphere. The cells were harvested by trysinization and homogenized in a homogenization buffer (10 mM Tris, 0.2 mM MgCl2, 5 mM KCl, with protease inhibitors aprotinin, leupeptin, pepstatin A and bacitracin) and centrifuged (2000 g). The supernatant was then centrifuged in 2M sucrose (31,300 g) to produce a semi-purified membrane pellet. The pellet was resuspended in homogenization and stored at −80° C.
(§2) On the day of the assay, the pellet was thawed on ice and diluted in assay buffer (50 mM Tris-HCl, 5 mM MgCl2, 2.5 mM EDTA, 0.5 mg/mL fatty acid free bovine serum albumin, pH 7.5). The diluted membrane pellet was added with buffer, either a test compound or vehicle standard and the radioligand [H]^3+-CP-55,940 (0.2 nM) to the wells of a 96-well polypropylene plate. Non-specific binding was measured in wells containing WIN 55,212 (10 uM). The plate was covered and incubated for 90 minutes at 30° C. The contents were then aspirated onto a Packard Unifilter GF/C filter bottom plate prewet with 0.5% polyethyleneimine. The wells of the polypropylene plate were rinsed and aspirated seven times with a 0.9% saline-0.5% Tween 20 solution. The Unifilter plate was dried, scintillation cocktail was added to each well and the counts representing binding were quantitated in a TopCount scintillation counter.
(§3) For compounds tested, an IC50 binding value was obtained from percent inhibition studies in which various test concentrations were used. The binding value was calculated by linear regression.
(§4) For compounds without an IC50 binding value, the percent inhibition (%) was obtained at a test concentration of ^(1)10 μM, ^(2)1 μM, ^(3)0.2 μM, ^(4)0.003 μM, ^(5) represents an average value.

CB2 receptor [2] = biological target: T2, CB2 receptor (Homo sapiens, UniProt P34972); test: Binding assay for CB2 ([3H]-CP-55,940 displacement, SK-N-MC membranes); conditions: Cannabinoid CB2 Receptor Binding IC50, radioligand CP-55,940 0.2 nM; SK-N-MC membranes
T2 construct: expressed in transfected cells; host or cells: SK-N-MC cells, stably transfected with pcDNA3 CB-2 (human)
T2 sequence (P34972 whole entry): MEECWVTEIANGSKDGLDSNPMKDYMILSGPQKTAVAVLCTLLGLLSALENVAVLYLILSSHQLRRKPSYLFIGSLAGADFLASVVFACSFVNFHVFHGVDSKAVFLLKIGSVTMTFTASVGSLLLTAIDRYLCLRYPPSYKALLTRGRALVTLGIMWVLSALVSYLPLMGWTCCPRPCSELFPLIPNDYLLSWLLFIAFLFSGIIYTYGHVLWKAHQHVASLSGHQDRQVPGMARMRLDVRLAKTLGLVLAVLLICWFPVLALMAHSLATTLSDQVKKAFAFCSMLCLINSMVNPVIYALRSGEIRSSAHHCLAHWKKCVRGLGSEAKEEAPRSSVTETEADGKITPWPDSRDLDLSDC
Procedure: as §1, §2, §3, §4

human CB1 receptor [3] = biological target: T1, human CB1 receptor; test: Functional cell-based CRE β-gal assay, CB1 (adenylate cyclase activity); conditions: single test concentration 10 μM (footnote 1)
Description: (§5) The CB1 and CB2 receptors are G-protein coupled receptors (GPCR), which influence cell function via the Gi-protein. These receptors modulate the activity of intracellular adenylate cyclase, which in turn produces the intracellular signal messenger cyclic-AMP (cAMP).
(§6) At baseline, or during non-ligand bound conditions, these receptors are constitutively active and tonically suppress adenylate cyclase activity. The binding of an agonist causes further receptor activation and produces additional suppression of adenylate cyclase activity. The binding of an inverse agonist inhibits the constitutive activity of the receptors and results in an increase in adenylate cyclase activity.
(§7) By monitoring intracellular adenylate cyclase activity, the ability of compounds to act as agonists or inverse agonists can be determined.
(§8) Test compounds were evaluated in SK-N-MC cells which, using standard transfection procedures, were stably transfected with human cDNA for pcDNA3-CRE β-gal and pcDNA3 CB1 receptor (human) or pcDNA3 CB2 receptor (human). By expressing CRE β-gal, the cells produced β-galactosidase in response to CRE promoter activation by cAMP. Cells expressing CRE β-gal and either the human CB1 or CB2 receptor will produce less β-galactosidase when treated with a CB1/CB2 agonist and will produce more β-galactosidase when treated with a CB1/CB2 inverse agonist.
(§9) The cells were grown in 96-well plates under standard cell culture conditions at 37° C. in a 5% CO2 atmosphere. After 3 days, the media was removed and a test compound in media (wherein the media was supplemented with 2 mM L-glutamine, […] sodium pyruvate, 0.1% low fatty acid FBS (fetal bovine serum) and antibiotics) was added to the cell. The plates were incubated for 30 minutes at 37° C. and the plate cells were then treated with forskolin over a 4-6 hour period, then washed and lysed. The β-galactosidase activity was quantitated using commercially available kit reagents (Promega Corp. Madison, Wis.) and a Vmax Plate Reader (Molecular Devices, Inc).
(§10) The change in β-galactosidase activity was determined by setting a vehicle treated cell's activity value at 100% and expressing the β-galactosidase activity measured in a corresponding compound treated cell as a percent of the vehicle treated cell activity.
The EC50 value for functional activity for compounds tested was calculated by linear regression and was obtained from studies in which varying compound concentrations were used. Data provided for certain compounds is represented by percent change (%) in functional activity at a single test concentration: ^(1)10 μM and ^(2)1 μM.

CB2 receptor [4] = biological target: T2, CB2 receptor; test: Functional cell-based CRE β-gal assay, CB2 (adenylate cyclase activity)
Description: as §5, §6, §7, §8, §9
For cells expressing CRE β-gal and the CB2 receptor, CB2 agonists reduced β-galactosidase activity in a dose-dependent manner and CB2 inverse agonists increase β-galactosidase activity in a dose-dependent manner.
as §10
The EC50 value for functional activity for compounds tested was calculated by linear regression and was obtained from studies in which varying compound concentrations were used.
The value of 29% for Compound 5 represents change in functional activity and was obtained from a study in which one compound concentration was used.

CB2 receptor [5] = biological target: T2, CB2 receptor; test: Modified functional cell-based assay (Beta-Glo luminescence), CB2 agonist
Procedure: Additional functional activity studies were performed with minor modifications. Beta galactosidase activity was quantified using the luminescent Beta-Glo Assay System (Promega Corp. Madison, Wis.) and an Orion Microplate Luminometer (Berthold Detection Systems, Oak Ridge, Tenn.). The EC50 values were calculated using GraphPad Prism and a four parameter logistic equation.

Structure (SMILES)	IC50 (human CB1 receptor [1]; Cannabinoid CB1 Receptor Binding IC50, radioligand CP-55,940 0.2 nM, SK-N-MC membranes) [nM]	IC50 (CB2 receptor [2])	CB1 receptor percent change in functional activity (human CB1 receptor [3])	EC50 (CB2 receptor [4]) [nM]	EC50 (CB2 receptor [5]) [nM]	inhibition at 10 µM (human CB1 receptor [1]) [%]	CB2 receptor change in functional activity (CB2 receptor [4]; one compound concentration) [%]
CC12CCC(C1)C(C)(C)C2NC(=O)c1nn(C2CCCCC2)c2c1CCCCCC2 (stereo not shown) [Cpd 1, 1-cyclohexyl-4,5,6,7,8,9-hexahydro-1H-cyclooctapyrazole-3-carboxylic acid (1,3,3-trimethyl-bicyclo[2.2.1]hept-2-yl)-amide]	40	0.1 nM and 0.09 nM	^(1)−78%	1.6	–	–	–
O=C(N[C@@H](CO)c1ccccc1)c1n[nH]c2c1CCCCC/C2=C\c1cccc(Cl)c1 [Cpd 31, (9E)-(3-chloro-benzylidene)-4,5,6,7,8,9-hexahydro-1H-cyclooctapyrazole-3-carboxylic acid [(1R)-2-hydroxy-1-phenyl-ethyl]-amide]	–	–	–	–	18	–	–
CC(NC(=O)c1nn(C2CCCC2)c2c1CCCCCC2)C12CC3CC(CC(C3)C1)C2 (stereo not shown) [Cpd 5, 1-cyclopentyl-4,5,6,7,8,9-hexahydro-1H-cyclooctapyrazole-3-carboxylic acid (1-adamantan-1-yl-ethyl)-amide]	–	100 nM	^(1)10%	–	–	47	29
O=C(NCC12CC3CC(CC(C3)C1)C2)c1nn(C2CCCC2)c2c1CCCCCC2 [Cpd 3, 1-cyclopentyl-4,5,6,7,8,9-hexahydro-1H-cyclooctapyrazole-3-carboxylic acid (adamantan-1-ylmethyl)-amide]	–	20 nM	^(1)−6%	200	–	45	–

From patent US7825151B2, “Hexahydro-cyclooctyl pyrazole cannabinoid modulators” (priority 2005, dated 2010)
